The structures appear in SMILES notation.

The values that follow come from patent publication US20140359899A1 (priority 2011, published 2014).

The target of one experiment is T1, AtSWEET12 (Arabidopsis thaliana, UniProt O82587).
T1 construct: Primers for the full length ORF of AtSWEET11 (AtSWT11FattB1 and AtSWT11attB2) or AtSWEET12; expressed in transfected cells; host or cells: Xenopus oocytes injected with capped cRNA from pOO2-GW
The experiment in a line: Oocyte efflux assay: [14C]-sugar efflux from Xenopus oocytes expressing AtSWEET12. It is filed as cell-based. The note with it: FIG. 4D.

The target in experiment [1] is FRET sucrose sensor FLIPsuc90μΔ1V. The note with it: detection level of the sucrose sensor; cited from earlier work.

T1 sequence (O82587 whole entry): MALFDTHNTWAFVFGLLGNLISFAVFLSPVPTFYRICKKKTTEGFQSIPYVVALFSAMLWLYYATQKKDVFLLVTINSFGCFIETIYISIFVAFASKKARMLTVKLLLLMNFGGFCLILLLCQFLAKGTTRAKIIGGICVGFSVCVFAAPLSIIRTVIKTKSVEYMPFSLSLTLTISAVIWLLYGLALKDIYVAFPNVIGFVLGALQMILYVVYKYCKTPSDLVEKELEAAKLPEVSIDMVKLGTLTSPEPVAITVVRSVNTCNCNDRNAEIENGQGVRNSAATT

For the compound `OC[C@H]1O[C@H](O[C@H]2[C@H](O)[C@@H](O)C(O)O[C@@H]2CO)[C@H](O)[C@@H](O)[C@@H]1O` (mixture of isomers) [Maltose, maltose], at AtSWEET12, the Maltose efflux result is “undetectable”.
By Kd is commonly meant the concentration at which binding is half-saturated. On to `OC[C@H]1O[C@@](CO)(O[C@H]2O[C@H](CO)[C@@H](O)[C@H](O)[C@H]2O)[C@@H](O)[C@@H]1O` [sucrose], for which the Kd in experiment [1] is roughly 90 µM.
